Test results reported in patent US11535643B2, “Macrolides with modified desosamine sugars and uses thereof” (President and Fellows of Harvard College, priority 2015, dated 2022).
Like-named read-outs stand apart in the source and are kept apart here.

Tests used:
Type in all cases: cell-based
[1] = system: A. baumannii; test: Broth dilution MIC determination (CLSI) against A. baumannii strains; conditions: for MIC: Acinetobacter baumannii
Summary of the method: (§1)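 Strains, including multidrug-resistant and macrolide-resistant ones, were exposed to macrolides in broth dilution per CLSI standards, and the lowest inhibiting concentration was recorded as MIC. Azithromycin and solithromycin were run alongside.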

[2] = system: S. pyogenes; test: Broth dilution MIC determination (CLSI) against S. pyogenes strains; conditions: for MIC: Streptococcus pyogenes
Summary of the method: as §1

[3] = system: S. pneumoniae; test: Broth dilution MIC determination (CLSI) against S. pneumoniae strains; conditions: for MIC: Streptococcus pneumoniae
Summary of the method: as §1

[4] = system: K. pneumoniae; test: Broth dilution MIC determination (CLSI) against K. pneumoniae strains; conditions: for MIC: Klebsiella pneumoniae
Summary of the method: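 Azithromycin and solithromycin served as controls; MICs were obtained by standard CLSI broth dilution on a strain panel including multidrug-resistant and macrolide-resistant isolates.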

[5] = system: P. aeruginosa; test: Broth dilution MIC determination (CLSI) against P. aeruginosa strains; conditions: for MIC: Pseudomonas aeruginosa
Summary of the method: as §1

[6] = system: S. aureus; test: Broth dilution MIC determination (CLSI) against S. aureus strains; conditions: for MIC: Staphylococcus aureus
Summary of the method: as §1

[7] = system: E. coli; test: Broth dilution MIC determination (CLSI) against E. coli strains; conditions: for MIC: Escherichia coli
Summary of the method: as §1

[8] = system: E. faecalis; test: Broth dilution MIC determination (CLSI) against E. faecalis strains; conditions: for MIC: Enterococcus faecalis
Summary of the method: as §1

[9] = system: H. influenzae; test: Broth dilution MIC determination (CLSI) against H. influenzae strains; conditions: for MIC: Haemophilus influenzae
Summary of the method: as §1

[10] = ATCC19606, ATCC19606, read-out: MIC A. baumannii ATCC19606
[11] = IMP-4, read-out: MIC A. baumannii IMP-4
[12] = chromosomal class C, read-out: MIC A. baumannii chromosomal class C
[13] = imipenem-resistant, read-out: MIC A. baumannii imipenem-resistant
[14] = ATCC19615, ATCC19615, read-out: MIC S. pyogenes ATCC19615
[15] = macrolide-resistant, read-out: MIC S. pyogenes macrolide-resistant
[16] = ATCC49619, ATCC49619, read-out: MIC S. pneumoniae ATCC49619
[17] = erm B + mef A genotype, read-out: MIC S. pneumoniae erm B + mef A genotype
[18] = erm B + tet(M, O) genotype, read-out: MIC S. pneumoniae erm B + tet(M, O) genotype
[19] = read-out: MIC S. pneumoniae mef A genotype, mef A genotype
[20] = read-out: MIC S. pneumoniae mef A genotype, mef A genotype, first of two such columns (c3)
[21] = ATCC10031, ATCC10031, read-out: MIC K. pneumoniae ATCC10031
[22] = KPC-2, read-out: MIC K. pneumoniae KPC-2
[23] = SHV-12, read-out: MIC K. pneumoniae SHV-12
[24] = TEM-10, read-out: MIC K. pneumoniae TEM-10
[25] = ATCC27853, read-out: MIC P. aeruginosa ATCC27853
[26] = read-out: MIC P. aeruginosa HPA101-1477
[27] = ATCC29213, ATCC29213, read-out: MIC S. aureus ATCC29213
[28] = USA600, USA600, GISA, read-out: MIC S. aureus USA600, GISA
[29] = read-out: MIC S. aureus erm A genotype
[30] = ATCC25922, ATCC25922, read-out: MIC E. coli ATCC25922
[31] = read-out: MIC E. coli CTX-M-14, CTX-M-14
[32] = read-out: MIC E. coli NDM-1, NDM-1
[33] = read-out: MIC E. coli TEM-1, TEM-1
[34] = ATCC29212, ATCC29212, read-out: MIC E. faecalis ATCC29212
[35] = Vancomycin-resistant, read-out: MIC E. faecalis Vancomycin-resistant
[36] = ATCC49247, ATCC49247, read-out: MIC H. influenzae ATCC49247
[37] = erythro > 4, azithro 1, read-out: MIC H. influenzae erythro > 4, azithro 1
[38] = MRSA / USA100, MRSA: USA100, read-out: MIC S. aureus MRSA: USA100
[39] = MRSA / USA300, MRSA: USA300, read-out: MIC S. aureus MRSA: USA300

CCC1OC(=O)C(C)C(=O)C(C)C(OC2OC(Cn3cc(-c4cnc(N)s4)nn3)CC(N(C)C)C2O)C(C)(OC)CC(C)CNC(C)C2N(CCCCn3cc(-c4cccc(N)c4)nn3)C(=O)OC12C (stereo not shown) [FSM-22373]
8 µg/mL: MIC S. pyogenes ATCC19615 [2]
>32 µg/mL: MIC A. baumannii ATCC19606 [1] | MIC A. baumannii IMP-4 ([1]; IMP-4) | MIC A. baumannii chromosomal class C ([1]; chromosomal class C) | MIC A. baumannii imipenem-resistant ([1]; imipenem-resistant) | MIC S. pyogenes macrolide-resistant ([2]; macrolide-resistant) | MIC K. pneumoniae ATCC10031 [4] | MIC K. pneumoniae KPC-2 ([4]; KPC-2) | MIC K. pneumoniae SHV-12 ([4]; SHV-12) | MIC P. aeruginosa ATCC27853 ([5]; ATCC27853) | MIC P. aeruginosa HPA101-1477 [5] | MIC S. aureus ATCC29213 [6] | MIC S. aureus MRSA: USA100 [6] | MIC S. aureus MRSA: USA300 [6] | MIC S. aureus USA600, GISA [6] | MIC S. aureus erm A genotype [6] | MIC E. coli ATCC25922 [7] | MIC E. coli CTX-M-14 [7] | MIC E. coli NDM-1 [7] | MIC E. coli TEM-1 [7] | MIC E. faecalis Vancomycin-resistant ([8]; Vancomycin-resistant) | MIC H. influenzae ATCC49247 [9]
<0.03125 µg/mL: MIC S. pneumoniae ATCC49619 [3] | MIC S. pneumoniae erm B + tet(M, O) genotype ([3]; erm B + tet(M, O) genotype)
16 µg/mL: MIC H. influenzae erythro > 4, azithro 1 ([9]; erythro > 4, azithro 1)
32 µg/mL: MIC S. pneumoniae erm B + mef A genotype ([3]; erm B + mef A genotype) | MIC K. pneumoniae TEM-10 ([4]; TEM-10) | MIC E. faecalis ATCC29212 [8]

CCC1OC(=O)C(C)(F)C(=O)C(C)C(OC2OC(COC(=O)c3ccccc3)C(O)C(N(C)C)C2O)C(C)(OC)CC(C)CNC(C)C2N(CCCCn3cc(-c4cccc(N)c4)nn3)C(=O)OC12C (stereo not shown) [FSM-21798]
32 µg/mL: MIC S. pyogenes macrolide-resistant ([2]; macrolide-resistant) | MIC E. faecalis ATCC29212 [8]
>32 µg/mL: MIC A. baumannii ATCC19606 [1] | MIC A. baumannii imipenem-resistant ([1]; imipenem-resistant) | MIC S. pneumoniae ATCC49619 [3] | MIC S. pneumoniae erm B + mef A genotype ([3]; erm B + mef A genotype) | MIC S. pneumoniae erm B + tet(M, O) genotype ([3]; erm B + tet(M, O) genotype) | MIC K. pneumoniae ATCC10031 [4] | MIC K. pneumoniae KPC-2 ([4]; KPC-2) | MIC P. aeruginosa ATCC27853 ([5]; ATCC27853) | MIC S. aureus ATCC29213 [6] | MIC S. aureus MRSA: USA100 [6] | MIC S. aureus MRSA: USA300 [6] | MIC S. aureus USA600, GISA [6] | MIC S. aureus erm A genotype [6] | MIC E. coli ATCC25922 [7] | MIC E. coli NDM-1 [7] | MIC E. faecalis Vancomycin-resistant ([8]; Vancomycin-resistant) | MIC H. influenzae ATCC49247 [9] | MIC H. influenzae erythro > 4, azithro 1 ([9]; erythro > 4, azithro 1)
8 µg/mL: MIC S. pyogenes ATCC19615 [2]

CC[C@H]1OC(=O)[C@H](C)C(=O)[C@H](C)[C@@H](O[C@@H]2OC(Cn3cc(-c4ccccn4)nn3)CC(N(C)C)C2O)[C@](C)(OC)C[C@@H](C)CN[C@H](C)[C@H]2N(CCCCn3cc(-c4cccc(N)c4)nn3)C(=O)O[C@]12C (stereo partly shown) [FSM-22366]
1 µg/mL: MIC S. pyogenes macrolide-resistant ([2]; macrolide-resistant)
>32 µg/mL: MIC A. baumannii ATCC19606 [1] | MIC A. baumannii IMP-4 ([1]; IMP-4) | MIC A. baumannii chromosomal class C ([1]; chromosomal class C) | MIC S. pneumoniae erm B + mef A genotype ([3]; erm B + mef A genotype) | MIC K. pneumoniae KPC-2 ([4]; KPC-2) | MIC K. pneumoniae SHV-12 ([4]; SHV-12) | MIC P. aeruginosa ATCC27853 ([5]; ATCC27853) | MIC P. aeruginosa HPA101-1477 [5] | MIC S. aureus MRSA: USA100 [6] | MIC S. aureus MRSA: USA300 [6] | MIC S. aureus USA600, GISA [6] | MIC S. aureus erm A genotype [6] | MIC E. coli ATCC25922 [7] | MIC E. coli CTX-M-14 [7] | MIC E. coli NDM-1 [7] | MIC E. faecalis Vancomycin-resistant ([8]; Vancomycin-resistant)
2 µg/mL: MIC E. faecalis ATCC29212 [8]
4 µg/mL: MIC H. influenzae ATCC49247 [9] | MIC H. influenzae erythro > 4, azithro 1 ([9]; erythro > 4, azithro 1)
16 µg/mL: MIC K. pneumoniae ATCC10031 [4] | MIC E. coli TEM-1 [7]
<0.03125 µg/mL: MIC S. pyogenes ATCC19615 [2] | MIC S. pneumoniae ATCC49619 [3] | MIC S. pneumoniae erm B + tet(M, O) genotype ([3]; erm B + tet(M, O) genotype)
32 µg/mL: MIC A. baumannii imipenem-resistant ([1]; imipenem-resistant) | MIC K. pneumoniae TEM-10 ([4]; TEM-10) | MIC S. aureus ATCC29213 [6]

CC[C@H]1OC(=O)[C@H](C)[C@@H](O[C@H]2C[C@@](C)(OC)[C@@H](O)[C@H](C)O2)[C@H](C)[C@@H](O[C@@H]2O[C@H](C)C[C@H](N(C)C)[C@H]2O)[C@](C)(O)C[C@@H](C)CN(C)[C@H](C)[C@@H](O)[C@]1(C)O [Azithromycin, azithromycin, reference compound]
> 32 µg/mL: MIC [1, 11] | MIC [3, 17] | MIC [4, 22] | MIC [5, 25] | MIC [5, 26] | MIC ([6]; MRSA / USA100, read-out: MIC S. aureus MRSA: USA100) | MIC [6, 28] | MIC [6, 29] | MIC [7, 31] | MIC [7, 32] | MIC [8, 35]
16 µg/mL: MIC [1, 10] | MIC [4, 23]
4 µg/mL: MIC [3, 19] | MIC [4, 21] | MIC [7, 30] | MIC [8, 34]
32 µg/mL: MIC [1, 12] | MIC ([6]; MRSA / USA300, read-out: MIC S. aureus MRSA: USA300)
0.125 µg/mL: MIC [9, 37]
1 µg/mL: MIC [6, 27] | MIC [7, 33]
0.5 µg/mL: MIC [9, 36]
< 0.0312 µg/mL: MIC [2, 14] | MIC [3, 16] | MIC [3, 18]
8 µg/mL: MIC [1, 13] | MIC [4, 24]
2 µg/mL: MIC [2, 15]
0.25 µg/mL: MIC [3, 20]

CC[C@H]1OC(=O)[C@H](C)C(=O)[C@H](C)[C@@H](O[C@@H]2OC(CNC(=N)N)CC(N(C)C)C2O)[C@](C)(OC)C[C@@H](C)CN[C@H](C)[C@H]2N(CCCCn3cc(-c4cccc(N)c4)nn3)C(=O)O[C@]12C (stereo partly shown) [FSM-21843]
2 µg/mL: MIC [2, 14]
4 µg/mL: MIC [3, 20]
32 µg/mL: MIC [3, 17] | MIC [4, 21] | MIC [9, 36] | MIC [9, 37]
8 µg/mL: MIC [2, 15] | MIC [3, 19]
0.25 µg/mL: MIC [3, 18]
0.5 µg/mL: MIC [3, 16]
> 32 µg/mL: MIC [1, 10] | MIC [1, 13] | MIC [4, 22] | MIC [5, 25] | MIC [6, 27] | MIC [6, 38] | MIC [6, 39] | MIC [6, 28] | MIC [6, 29] | MIC [7, 30] | MIC [7, 32] | MIC [8, 34] | MIC [8, 35]

CC[C@H]1OC(=O)[C@H](C)C(=O)[C@H](C)[C@@H](O[C@@H]2OC(Cn3cc(-c4cnc(N)s4)nn3)CC(N(C)C)C2O)[C@](C)(OC)C[C@@H](C)CN[C@H](C)[C@H]2N(CCCCn3cc(-c4cccc(N)c4)nn3)C(=O)O[C@]12C (stereo partly shown) [FSM-22125]
≤ 0.0312 µg/mL: MIC [2, 14] | MIC [3, 16] | MIC [3, 18]
4 µg/mL: MIC [2, 15] | MIC [3, 19] | MIC [6, 27] | MIC [9, 36]
2 µg/mL: MIC [9, 37]
> 32 µg/mL: MIC [1, 10] | MIC [1, 11] | MIC [1, 13] | MIC [3, 17] | MIC [4, 22] | MIC [4, 23] | MIC [5, 25] | MIC [5, 26] | MIC [6, 38] | MIC [6, 39] | MIC [6, 28] | MIC [6, 29] | MIC [7, 31] | MIC [7, 32] | MIC [8, 35]
0.5 µg/mL: MIC [3, 20] | MIC [8, 34]
16 µg/mL: MIC [7, 33]
32 µg/mL: MIC [1, 12] | MIC [4, 21] | MIC [4, 24] | MIC [7, 30]
